Data from ChEMBL document CHEMBL2406981, “Novel pyrazoline amidoxime and their 1,2,4-oxadiazole analogues: synthesis and pharmacological screening” (Bioorg Med Chem Lett, 2013).
Values after ≈ are worked out from the molar mass of the structure shown.

System: Aspergillus flavus
Experiment: Antimicrobial activity against Aspergillus flavus MTCC 873 at 100 ug/ml after 24 hrs by agar disc diffusion method
Assay type: functional
Settings: MTCC 873, 24 h, read-out: DIZ

SMILES | zone of inhibition at 100 µg/mL
COc1ccc(-c2nc(C3CC(c4ccc(O)cc4)=NN3c3ccccc3)no2)cc1OC (stereo unspecified) | 20 mm

System: not listed separately
Experiment: Antioxidant activity assessed as reducing power of ferric ion at 50 ug/ml after 20 mins
Assay type: functional
Design: scale not given: the % may be the effect or the level left
Settings: not given

SMILES | Activity
COc1ccc(-c2nc(C3CC(c4ccc(O)cc4)=NN3c3ccccc3)no2)cc1OC (stereo unspecified) | 24%

System: Bacillus cereus
Experiment: Antimicrobial activity against Bacillus cereus MTCC 8372 at 50 ug/ml after 24 hrs by agar disc diffusion method
Assay type: functional
Settings: MTCC 8372, 24 h, read-out: DIZ

SMILES | zone of inhibition at 50 µg/mL
COc1ccc(-c2nc(C3CC(c4ccc(O)cc4)=NN3c3ccccc3)no2)cc1OC (stereo unspecified) | 10 mm

System: Radical scavenging activity
Experiment: Antioxidant activity assessed as DPPH free radical scavenging activity at 100 ug/ml after 20 mins
Assay type: functional
Settings: not given

SMILES | Activity
COc1ccc(-c2nc(C3CC(c4ccc(O)cc4)=NN3c3ccccc3)no2)cc1OC (stereo unspecified) | 76%

System: Shigella flexneri
Experiment: Antimicrobial activity against Shigella flexneri MTCC 1457
Assay type: functional
Settings: not given

SMILES | MIC
COc1ccc(-c2nc(C3CC(c4ccc(O)cc4)=NN3c3ccccc3)no2)cc1OC (stereo unspecified) | 15 µg/mL (≈ 33.9 µM)

System: Staphylococcus aureus
Experiment: Antimicrobial activity against Staphylococcus aureus MTCC 96 at 100 ug/ml after 24 hrs by agar disc diffusion method
Assay type: functional
Settings: MTCC 96, 24 h, read-out: DIZ

SMILES | zone of inhibition at 100 µg/mL
COc1ccc(-c2nc(C3CC(c4ccc(O)cc4)=NN3c3ccccc3)no2)cc1OC (stereo unspecified) | 18 mm

System: Staphylococcus aureus
Experiment: Antimicrobial activity against Staphylococcus aureus MTCC 96
Assay type: functional
Settings: not given

SMILES | MIC
COc1ccc(-c2nc(C3CC(c4ccc(O)cc4)=NN3c3ccccc3)no2)cc1OC (stereo unspecified) | 20 µg/mL (≈ 45.2 µM)

System: Radical scavenging activity
Experiment: Antioxidant activity assessed as DPPH free radical scavenging activity at 50 ug/ml after 20 mins
Assay type: functional
Settings: not given

SMILES | Activity
COc1ccc(-c2nc(C3CC(c4ccc(O)cc4)=NN3c3ccccc3)no2)cc1OC (stereo unspecified) | 53%

System: Shigella flexneri
Experiment: Antimicrobial activity against Shigella flexneri MTCC 1457 at 100 ug/ml after 24 hrs by agar disc diffusion method
Assay type: functional
Settings: MTCC 1457, 24 h, read-out: DIZ

SMILES | zone of inhibition at 100 µg/mL
COc1ccc(-c2nc(C3CC(c4ccc(O)cc4)=NN3c3ccccc3)no2)cc1OC (stereo unspecified) | 18 mm

System: Aspergillus niger
Experiment: Antimicrobial activity against Aspergillus niger MTCC 281 at 50 ug/ml after 24 hrs by agar disc diffusion method
Assay type: functional
Settings: MTCC 281, 24 h, read-out: DIZ

SMILES | zone of inhibition at 50 µg/mL
COc1ccc(-c2nc(C3CC(c4ccc(O)cc4)=NN3c3ccccc3)no2)cc1OC (stereo unspecified) | 18 mm

System: Escherichia coli
Experiment: Antimicrobial activity against Escherichia coli MTCC 724
Assay type: functional
Settings: not given

SMILES | MIC
COc1ccc(-c2nc(C3CC(c4ccc(O)cc4)=NN3c3ccccc3)no2)cc1OC (stereo unspecified) | 25 µg/mL (≈ 56.5 µM)

System: Bacillus cereus
Experiment: Antimicrobial activity against Bacillus cereus MTCC 8372
Assay type: functional
Settings: not given

SMILES | MIC
COc1ccc(-c2nc(C3CC(c4ccc(O)cc4)=NN3c3ccccc3)no2)cc1OC (stereo unspecified) | 15 µg/mL (≈ 33.9 µM)

System: Escherichia coli
Experiment: Antimicrobial activity against Escherichia coli MTCC 724 at 100 ug/ml after 24 hrs by agar disc diffusion method
Assay type: functional
Settings: MTCC 724, 24 h, read-out: DIZ

SMILES | zone of inhibition at 100 µg/mL
COc1ccc(-c2nc(C3CC(c4ccc(O)cc4)=NN3c3ccccc3)no2)cc1OC (stereo unspecified) | 12 mm

System: Klebsiella pneumoniae
Experiment: Antimicrobial activity against Klebsiella pneumoniae MTCC 3384
Assay type: functional
Settings: not given

SMILES | MIC
COc1ccc(-c2nc(C3CC(c4ccc(O)cc4)=NN3c3ccccc3)no2)cc1OC (stereo unspecified) | 25 µg/mL (≈ 56.5 µM)

System: Shigella flexneri
Experiment: Antimicrobial activity against Shigella flexneri MTCC 1457 at 50 ug/ml after 24 hrs by agar disc diffusion method
Assay type: functional
Settings: MTCC 1457, 24 h, read-out: DIZ

SMILES | zone of inhibition at 50 µg/mL
COc1ccc(-c2nc(C3CC(c4ccc(O)cc4)=NN3c3ccccc3)no2)cc1OC (stereo unspecified) | 10 mm

System: Klebsiella pneumoniae
Experiment: Antimicrobial activity against Klebsiella pneumoniae MTCC 3384 at 100 ug/ml after 24 hrs by agar disc diffusion method
Assay type: functional
Settings: MTCC 3384, 24 h, read-out: DIZ

SMILES | zone of inhibition at 100 µg/mL
COc1ccc(-c2nc(C3CC(c4ccc(O)cc4)=NN3c3ccccc3)no2)cc1OC (stereo unspecified) | 12 mm

System: Klebsiella pneumoniae
Experiment: Antimicrobial activity against Klebsiella pneumoniae MTCC 3384 at 50 ug/ml after 24 hrs by agar disc diffusion method
Assay type: functional
Settings: MTCC 3384, 24 h, read-out: DIZ

SMILES | zone of inhibition at 50 µg/mL
COc1ccc(-c2nc(C3CC(c4ccc(O)cc4)=NN3c3ccccc3)no2)cc1OC (stereo unspecified) | 8 mm

System: Aspergillus flavus
Experiment: Antimicrobial activity against Aspergillus flavus MTCC 873 at 50 ug/ml after 24 hrs by agar disc diffusion method
Assay type: functional
Settings: MTCC 873, 24 h, read-out: DIZ

SMILES | zone of inhibition at 50 µg/mL
COc1ccc(-c2nc(C3CC(c4ccc(O)cc4)=NN3c3ccccc3)no2)cc1OC (stereo unspecified) | 14 mm

System: not listed separately
Experiment: Antioxidant activity assessed as reducing power of ferric ion at 100 ug/ml after 20 mins
Assay type: functional
Design: scale not given: the % may be the effect or the level left
Settings: not given

SMILES | Activity
COc1ccc(-c2nc(C3CC(c4ccc(O)cc4)=NN3c3ccccc3)no2)cc1OC (stereo unspecified) | 75%

System: Bacillus cereus
Experiment: Antimicrobial activity against Bacillus cereus MTCC 8372 at 100 ug/ml after 24 hrs by agar disc diffusion method
Assay type: functional
Settings: MTCC 8372, 24 h, read-out: DIZ

SMILES | zone of inhibition at 100 µg/mL
COc1ccc(-c2nc(C3CC(c4ccc(O)cc4)=NN3c3ccccc3)no2)cc1OC (stereo unspecified) | 16 mm

System: not listed separately
Experiment: Antioxidant activity assessed as reducing power of ferric ion at 10 ug/ml after 20 mins
Assay type: functional
Design: scale not given: the % may be the effect or the level left
Settings: not given

SMILES | Activity
COc1ccc(-c2nc(C3CC(c4ccc(O)cc4)=NN3c3ccccc3)no2)cc1OC (stereo unspecified) | 18%

System: not listed separately
Experiment: Antioxidant activity against ferric chloride-induced lipid peroxidation using egg lecithin at 100 ug/ml after 1 hr
Assay type: functional
Settings: not given

SMILES | inhibition
COc1ccc(-c2nc(C3CC(c4ccc(O)cc4)=NN3c3ccccc3)no2)cc1OC (stereo unspecified) | 73%

System: not listed separately
Experiment: Antioxidant activity against ferric chloride-induced lipid peroxidation using egg lecithin at 10 ug/ml after 1 hr
Assay type: functional
Settings: not given

SMILES | inhibition
COc1ccc(-c2nc(C3CC(c4ccc(O)cc4)=NN3c3ccccc3)no2)cc1OC (stereo unspecified) | 32%

System: Radical scavenging activity
Experiment: Antioxidant activity assessed as DPPH free radical scavenging activity at 10 ug/ml after 20 mins
Assay type: functional
Settings: not given

SMILES | Activity
COc1ccc(-c2nc(C3CC(c4ccc(O)cc4)=NN3c3ccccc3)no2)cc1OC (stereo unspecified) | 31%

System: Aspergillus niger
Experiment: Antimicrobial activity against Aspergillus niger MTCC 281 at 100 ug/ml after 24 hrs by agar disc diffusion method
Assay type: functional
Settings: MTCC 281, 24 h, read-out: DIZ

SMILES | zone of inhibition at 100 µg/mL
COc1ccc(-c2nc(C3CC(c4ccc(O)cc4)=NN3c3ccccc3)no2)cc1OC (stereo unspecified) | 26 mm

System: Aspergillus niger
Experiment: Antimicrobial activity against Aspergillus niger MTCC 281
Assay type: functional
Settings: not given

SMILES | MIC
COc1ccc(-c2nc(C3CC(c4ccc(O)cc4)=NN3c3ccccc3)no2)cc1OC (stereo unspecified) | 5 µg/mL (≈ 11.3 µM)

System: Escherichia coli
Experiment: Antimicrobial activity against Escherichia coli MTCC 724 at 50 ug/ml after 24 hrs by agar disc diffusion method
Assay type: functional
Settings: MTCC 724, 24 h, read-out: DIZ

SMILES | zone of inhibition at 50 µg/mL
COc1ccc(-c2nc(C3CC(c4ccc(O)cc4)=NN3c3ccccc3)no2)cc1OC (stereo unspecified) | 7 mm

System: not listed separately
Experiment: Antiinflammatory activity against heat-induced albumin denaturation at […] preincubated for 15 mins before heat induction by UV-vis spectrophotometer analysis
Assay type: functional
Settings: not given

SMILES | inhibition
COc1ccc(-c2nc(C3CC(c4ccc(O)cc4)=NN3c3ccccc3)no2)cc1OC (stereo unspecified) | 58.5%

System: not listed separately
Experiment: Antioxidant activity against ferric chloride-induced lipid peroxidation using egg lecithin at 50 ug/ml after 1 hr
Assay type: functional
Settings: not given

SMILES | inhibition
COc1ccc(-c2nc(C3CC(c4ccc(O)cc4)=NN3c3ccccc3)no2)cc1OC (stereo unspecified) | 45%

System: Aspergillus flavus
Experiment: Antimicrobial activity against Aspergillus flavus MTCC 873
Assay type: functional
Settings: not given

SMILES | MIC
COc1ccc(-c2nc(C3CC(c4ccc(O)cc4)=NN3c3ccccc3)no2)cc1OC (stereo unspecified) | 10 µg/mL (≈ 22.6 µM)

System: Staphylococcus aureus
Experiment: Antimicrobial activity against Staphylococcus aureus MTCC 96 at 50 ug/ml after 24 hrs by agar disc diffusion method
Assay type: functional
Settings: MTCC 96, 24 h, read-out: DIZ

SMILES | zone of inhibition at 50 µg/mL
COc1ccc(-c2nc(C3CC(c4ccc(O)cc4)=NN3c3ccccc3)no2)cc1OC (stereo unspecified) | 8 mm
